According to BindingDB's records for doi:10.1021/jm970815r (Eisai, 1998):

Assay: Inhibition of Phosphodiesterase 5 from porcine platelets

| SMILES | IC50 [µM] |
| --- | --- |
| COc1ccc(CNc2nnc(Cl)c3ccc([N+](=O)[O-])cc23)cc1Cl [(3-Chloro-4-methoxy-benzyl)-(4-chloro-7-nitro-phthalazin-1-yl)-amine] | 0.0035 |
| COc1ccc(CNc2nnc(Cl)c3ccc(C#N)cc23)cc1Cl | 0.0048 |
| CCOc1ccc(CNc2nnc(Cl)c3ccc(C#N)cc23)cc1Cl [1-Chloro-4-(3-chloro-4-ethoxy-benzylamino)-phthalazine-6-carbonitrile] | 0.049 |
| COc1ccc(CNc2nnc(Cl)c3ccc(C(F)(F)F)cc23)cc1Cl [(3-Chloro-4-methoxy-benzyl)-(4-chloro-7-trifluoromethyl-phthalazin-1-yl)-amine] | 0.0053 |
| O=[N+]([O-])c1ccc2c(Cl)nnc(NCc3ccc4c(c3)OCO4)c2c1 [Benzo[1,3]dioxol-5-ylmethyl-(4-chloro-7-nitro-phthalazin-1-yl)-amine] | 0.063 |
| COc1ccc(CNc2nnc(Cl)c3cc(Cl)ccc23)cc1Cl [(3-Chloro-4-methoxy-benzyl)-(4,6-dichloro-phthalazin-1-yl)-amine] | 0.81 |
| COc1ccc(CNc2nnc(Cl)c3cc(C#N)ccc23)cc1Cl [4-Chloro-1-(3-chloro-4-methoxy-benzylamino)-phthalazine-6-carbonitrile] | 0.14 |
| COc1ccc(CNc2nnc(Cl)c3ccc(C#N)cc23)cc1 [1-Chloro-4-(4-methoxy-benzylamino)-phthalazine-6-carbonitrile] | 0.14 |
